Tests used:
CDK4/Cyclin D1 = CDK4/Cyclin D1 (Homo sapiens (Human), UniProt P11802); assay: CDK4/CyclinD1 enzymatic activity assay (TR-FRET); type: biochemical; settings: CDK4/CyclinD1 1 nM, ATP 2 mM, read-out: CDK4_D1 IC50
In short: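 Insect-cell CDK4/Cyclin D1 (1 nM) with ULight-4E-BP1 (100 nM) and 2 mM ATP in HEPES pH 7.4 buffer, preincubated 20 min with compound (9-dose, 3-fold dilutions); 10 mM MgCl2 started the reaction, run 60 min at 37 °C. EDTA/Eu-anti-phospho-4E-BP1 TR-FRET detection; IC50 from 4-parameter Hill fit.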

CDK6/Cyclin D1 = CDK6/Cyclin D1 (Homo sapiens (Human), UniProt Q00534); assay: CDK6/CyclinD1 enzymatic activity assay (TR-FRET); type: biochemical; settings: CDK6/Cyclin D1 1 nM, ATP 250 μM, read-out: CDK6_D1 IC50
In short: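 Insect-cell-expressed CDK6/Cyclin D1 (1 nM) phosphorylated ULight-4E-BP1 (100 nM) with 250 μM ATP in HEPES pH 7.4 buffer. After 20 min compound preincubation, reactions were started with 10 mM MgCl2 and run 60 min at 37 °C. EDTA-quenched samples were read by TR-FRET with Eu-anti-P-4E-BP1; IC50 from 9-dose 4-parameter fits.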

[1] = system: MCF7 adenocarcinoma cell line; assay: Cell proliferation studies in MCF7 cells (ATP-Lite); type: cell-based; settings: Homo sapiens, 240 h, 10 days incubation, cell viability by ATP-Lite luminescence, read-out: PROLIFERATION_CTG_MCF7 IC50
In short: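 MCF7 cells, seeded at 100 or 200 cells/well, were exposed for 10 days at 37 °C to a 9-point, 3-fold dilution series in quadruplicate, with media exchange and re-dosing on day 5. Viability was read by ATP-Lite luminescence, normalized to background and DMSO, and fitted for IC50.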

[2] = Brain-to-plasma ratio determination in Sprague-Dawley rats; type: in vivo; settings: rat, male Sprague-Dawley rats, four hours after a single oral dose (3, 4, 5, or 10 mg/kg)
Procedure: Example B: Brain-to-Plasma Ratio Determination in Sprague-Dawley Rats
The brain-to-plasma ratio (Kp) was determined in male Sprague-Dawley rats (7-9 weeks old) four hours after a single oral dose. Rats were acclimated and given free access to standard rodent chow and water throughout the entire study. Test articles were formulated as a solution at 0.3, 0.4, 0.5, or 1.0 mg/mL in a vehicle comprised of 10:15:75 (v:v:v) dimethylacetamide (DMA):Solutol HS15:water and delivered orally at a rate of 10 mL/kg to three rats to achieve final doses of 3, 4, 5, or 10 mg/kg, respectively. At 4 hours post-dose, blood samples were collected via jugular vein cannula into tubes containing K2EDTA as the anticoagulant and stored on ice. Blood samples were then centrifuged at 4° C. at 6000 rpm for 5 minutes, and the resulting plasma was placed into tubes and stored frozen at −80° C. until analysis. Whole brain samples were also collected at 4 hours post-dose. The weight of each brain was measured and recorded, and samples were immediately stored on dry ice. Brain samples were then transferred to storage at −80° C. until analysis.
Prior to analysis, brain samples were combined with water (4 mL/1 gram of brain) and homogenized. Prior to injection, plasma and brain homogenate samples and standards were prepared for analysis by precipitation with acetonitrile or 1:1 (v:v) methanol:acetonitrile. Samples were then thoroughly mixed, centrifuged at 4000 rpm for 15 minutes, and the resulting supernatant was transferred for analysis. Test article concentrations in plasma and brain homogenate were then determined by LC-MS/MS and quantified against calibration standards prepared to known concentrations in matched blank (analyte-free) biological matrix. The Kp was then determined by dividing the dilution-corrected brain concentration by the plasma concentration from each rat. A brain density of 1 gram/mL was assumed for all calculations.

CDK6/Cyclin D1, sequence (Q00534 whole entry): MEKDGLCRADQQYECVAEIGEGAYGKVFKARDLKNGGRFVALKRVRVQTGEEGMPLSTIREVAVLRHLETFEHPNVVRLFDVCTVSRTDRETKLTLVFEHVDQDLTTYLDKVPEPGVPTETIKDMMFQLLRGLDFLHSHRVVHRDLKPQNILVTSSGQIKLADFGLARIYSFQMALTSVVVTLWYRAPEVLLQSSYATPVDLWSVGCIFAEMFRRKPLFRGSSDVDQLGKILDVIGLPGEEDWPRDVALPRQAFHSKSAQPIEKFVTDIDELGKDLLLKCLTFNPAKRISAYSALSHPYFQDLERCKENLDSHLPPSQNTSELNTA
CDK6/Cyclin D1, sequence (P24385 whole entry partner): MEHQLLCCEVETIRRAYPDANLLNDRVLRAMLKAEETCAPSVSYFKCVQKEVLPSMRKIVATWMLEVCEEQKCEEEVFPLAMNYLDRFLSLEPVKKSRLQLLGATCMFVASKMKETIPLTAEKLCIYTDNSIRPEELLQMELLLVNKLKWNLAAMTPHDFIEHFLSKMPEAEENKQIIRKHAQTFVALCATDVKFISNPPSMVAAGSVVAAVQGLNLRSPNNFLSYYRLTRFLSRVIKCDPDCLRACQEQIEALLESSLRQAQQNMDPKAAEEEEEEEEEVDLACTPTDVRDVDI
CDK4/Cyclin D1, sequence (P11802 whole entry): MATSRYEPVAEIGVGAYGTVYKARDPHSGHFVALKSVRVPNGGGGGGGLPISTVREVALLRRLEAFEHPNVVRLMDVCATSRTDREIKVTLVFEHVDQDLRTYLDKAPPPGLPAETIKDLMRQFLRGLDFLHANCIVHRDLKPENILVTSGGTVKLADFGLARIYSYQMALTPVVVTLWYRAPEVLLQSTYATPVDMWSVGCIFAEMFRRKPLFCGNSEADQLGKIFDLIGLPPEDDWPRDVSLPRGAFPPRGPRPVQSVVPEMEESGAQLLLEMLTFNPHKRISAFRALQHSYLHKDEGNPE
CDK4/Cyclin D1, sequence (P24385 whole entry partner): as the sequence (P24385 whole entry partner) above

Row | SMILES | IC50 (CDK4/Cyclin D1) [nM] | IC50 (CDK6/Cyclin D1) [nM] | IC50 [1] [nM] | Kp at 4 h [2]
1 | CCN1CC2(C1)CN(c1ccc(Nc3ncc(F)c(-c4ccc5c(c4)C4(CCCC4)N(C)C5=O)n3)nc1)C2 [Example 78, 6′-(2-((5-(6-Ethyl-2,6-diazaspiro[3.3]heptan-2-yl)pyridin-2-yl)amino)-5-fluoropyrimidin-4-yl)-2′-methylspiro[cyclopentane-1,1′-isoindolin]-3′-one] | ≤ 20 | 20 to 200 | 20 to 200 | 1 to 3
2 | CCN1CC2(CC(c3ccc(Nc4ncc(F)c(-c5sc6c(c5C)C(=O)N(C)C65CC5)n4)nc3)C2)C1 [Example 81, 2′-(2-((5-(2-Ethyl-2-azaspiro[3.3]heptan-6-yl)pyridin-2-yl)amino)-5-fluoropyrimidin-4-yl)-3′,5′-dimethylspiro[cyclopropane-1,6′-thieno[2,3-c]pyrrol]-4′(5′H)-one] | ≤ 20 | ≤ 20 | ≤ 20 | < 1

Source: patent publication US20250163074A1, “CDK Inhibitors And Their Use As Pharmaceuticals” (Prelude Therapeutics Incorporated, priority 2020, published 2025)
